For the experiment, the target named is T1, mTOR (Homo sapiens, UniProt P42345).
T1 construct: purchased Invitrogen PR8683A
T1 sequence (P42345 1360-2549 limits assumed): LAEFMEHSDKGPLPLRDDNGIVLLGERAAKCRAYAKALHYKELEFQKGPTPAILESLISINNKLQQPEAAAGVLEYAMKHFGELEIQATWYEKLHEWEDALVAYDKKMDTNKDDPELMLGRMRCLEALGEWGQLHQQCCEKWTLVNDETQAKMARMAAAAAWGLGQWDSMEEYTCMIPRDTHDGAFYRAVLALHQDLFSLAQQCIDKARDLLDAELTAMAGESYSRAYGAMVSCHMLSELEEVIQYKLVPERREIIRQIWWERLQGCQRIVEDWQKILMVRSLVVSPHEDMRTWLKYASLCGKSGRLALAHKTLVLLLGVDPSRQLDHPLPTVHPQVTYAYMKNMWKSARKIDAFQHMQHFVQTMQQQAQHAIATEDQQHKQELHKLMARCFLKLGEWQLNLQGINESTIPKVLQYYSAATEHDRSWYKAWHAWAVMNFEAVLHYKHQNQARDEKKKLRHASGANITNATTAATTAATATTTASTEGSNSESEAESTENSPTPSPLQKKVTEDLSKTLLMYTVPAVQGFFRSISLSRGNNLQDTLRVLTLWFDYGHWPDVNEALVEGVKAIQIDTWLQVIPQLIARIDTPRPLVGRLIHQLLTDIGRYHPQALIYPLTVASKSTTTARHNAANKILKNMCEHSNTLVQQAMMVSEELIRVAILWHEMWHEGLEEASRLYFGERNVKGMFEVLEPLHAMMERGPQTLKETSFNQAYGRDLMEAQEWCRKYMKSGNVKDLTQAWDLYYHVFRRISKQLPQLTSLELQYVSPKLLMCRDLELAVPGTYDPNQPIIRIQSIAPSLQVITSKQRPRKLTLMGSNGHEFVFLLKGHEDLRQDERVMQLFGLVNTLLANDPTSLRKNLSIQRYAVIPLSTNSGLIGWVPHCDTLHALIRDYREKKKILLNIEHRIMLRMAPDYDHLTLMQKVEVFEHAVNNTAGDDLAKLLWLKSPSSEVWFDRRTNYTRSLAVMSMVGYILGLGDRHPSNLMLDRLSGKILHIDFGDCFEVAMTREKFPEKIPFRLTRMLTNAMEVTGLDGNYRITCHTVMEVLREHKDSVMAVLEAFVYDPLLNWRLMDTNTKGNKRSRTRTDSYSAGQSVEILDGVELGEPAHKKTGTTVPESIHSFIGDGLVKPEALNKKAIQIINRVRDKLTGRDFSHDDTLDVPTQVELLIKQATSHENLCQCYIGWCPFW
Nature of the experiment: mTOR HTR-FRET assay. Format: biochemical. The note with it: read-out: Act. Level (IC50 in mTor HTR-FRET assay). The method in brief:
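Test compounds, taken from 10 mM DMSO stocks and diluted, were mixed with mTOR enzyme (0.200 μg/mL) in Tris buffer pH 7.4 with 100 mM NaCl, 0.1% Tween-20 and 1 mM DTT. ATP/substrate addition initiated the reaction, alongside compound-free controls.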
Take `CNc1nc2c(C)cc(-c3cnc4c(n3)N(CC3CCOCC3)C(=O)CN4)cc2[nH]1` [Example 263, 7-(4-methyl-2-(methylamino)-1H-benzo[d]imidazol-6-yl)-1-((tetrahydro-2H-pyran-4-yl)methyl)-3,4-dihydropyrazino[2,3-b]pyrazin-2(1H)-one]: the IC50 is 0.005 to 250 nM.

`Cc1cc(-c2cnc3c(n2)N(CC2CCOCC2)C(=O)CN3)cc2[nH]c(N)nc12` [Example 264, 7-(2-amino-4-methyl-1H-benzo[d]imidazol-6-yl)-1-((tetrahydro-2H-pyran-4-yl)methyl)-3,4-dihydropyrazino[2,3-b]pyrazin-2(1H)-one]: the IC50 lay within 0.005 to 250 nM.

With `C[C@H]1Nc2ncc(-c3ccc(C(C)(C)O)nc3)nc2N(CCC2CCOCC2)C1=O` [Example 266, (R)-7-(6-(2-hydroxypropan-2-yl)pyridin-3-yl)-3-methyl-1-(2-(tetrahydro-2H-pyran-4-yl)ethyl)-3,4-dihydropyrazino[2,3-b]pyrazin-2(1H)-one], the IC50 was in the range of 500 to 1000 nM.

With `C[C@@H]1Nc2ncc(-c3ccc(C(C)(C)O)nc3)nc2N(CCC2CCOCC2)C1=O` [Example 267, (S)-7-(6-(2-hydroxypropan-2-yl)pyridin-3-yl)-3-methyl-1-(2-(tetrahydro-2H-pyran-4-yl)ethyl)-3,4-dihydropyrazino[2,3-b]pyrazin-2(1H)-one], the IC50 was 500 to 1000 nM.

Consider `Cc1cc(-c2cnc3c(n2)N(CCC2CCOCC2)C(=O)CN3)cc2[nH]c(N)nc12` [Example 269, 7-(2-amino-4-methyl-1H-benzo[d]imidazol-6-yl)-1-(2-(tetrahydro-2H-pyran-4-yl)ethyl)-3,4-dihydropyrazino[2,3-b]pyrazin-2(1H)-one], for which the IC50 was 0.005 to 250 nM.

Regarding `Cc1nc(-c2nc[nH]n2)ccc1-c1cnc2c(n1)N(CCO)C(=O)CN2` [Example 274, 1-(2-hydroxyethyl)-7-(2-methyl-6-(1H-1,2,4-triazol-3-yl)pyridin-3-yl)-3,4-dihydropyrazino[2,3-b]pyrazin-2(1H)-one], the IC50 lay within 0.005 to 250 nM.

The term IC50 denotes the concentration that gives 50% inhibition.

(Values after US11292796B2 (SIGNAL PHARMACEUTICALS, LLC, priority 2008, dated 2022).)
